Tests used:
healthy subjects = test: Safety and tolerability (AEs, ECG, hs-troponin I) after single ascending doses in healthy volunteers; assay type: in vivo, human
Protocol: PK and PD data were collected as described herein. […] Changes from Baseline at each postbaseline timepoint were assessed.
A 12-lead electrocardiogram (ECG) was obtained after the subjects had rested in a supine position for at least 10 minutes. […] Digital 12-lead ECG evaluations was performed after 10 minutes of rest at Screening, predose on Day 1 (within 2 hours of dosing), and at various predetermined time points. Each time an ECG was completed, a 10-second paper ECG rhythm strip would also be obtained and maintained in the subject's source documentation.
The ECGs were transmitted to the core ECG laboratory who read the recordings in a blinded manner. An automated methodology was utilized with manual over-reading by a cardiologist. The following intervals were measured: RR, PR, QRS, and QT. Heart rate (HR) was calculated as 60/(RR×1000) (with RR expressed in msec) and rounded to the nearest integer.
Corrected QT interval (QTc) was calculated using the manually over-read QT values per the standard procedures of the central ECG laboratory. Each individual ECG QT value was corrected for HR. The measured QT data were corrected for HR using the Fridericia correction QTcF and the Bazzett method (QTcB) as per the following formulae/method (with QT, RR and QTc expressed in msec): […]
Any abnormal findings judged by the investigator to be clinically important were recorded as adverse events (AEs). AEs were mapped to system organ classes (SOCs) and preferred terms (PTs) using the Medical Dictionary for Regulatory Activities (MedDRA). AEs were monitored during the study and the data analyzed with respect to overall incidence, severity, and potential relationship to study medication. The blinded AEs were presented to the SRC for review after each cohort to aid in their decision on the dose of the subsequent cohort or if the study should be terminated. […] No ECG changes or symptoms were noted.
For the final analysis, the AEs were grouped by treatment group with all of the subjects who received placebo pooled as 1 group. AEs with onset on or after the first dose of study medication, or with an onset before the first dose of study medication that increased in severity on or after the first dose of study medication. Treatment-emergent AEs (defined as AEs starting […]) were summarized for the Safety Analysis Population by MedDRA SOC and PT, and by severity and relationship to treatment. Severe and life-threatening AEs, SAEs, and AEs leading to study withdrawal, if any, were presented in data listings.
Serum samples were drawn for hs-troponin I. Analyses were performed using the Abbott Architect STAT High Sensitivity Troponin I assay.

[1] = tested on: patients with stable HFrEF; test: Safety and tolerability (TEAEs, troponin, ECG, Holter) in SAD cohorts, patients with stable HFrEF; assay type: in vivo, human
Protocol: Safety and efficacy assessments were conducted by measuring patients' vital signs and laboratory parameters; performing TTE to measure, e.g., systolic ejection time; performing electrocardiograms (e.g., 12-lead ECG), real-time ECG telemetry (e.g., at least 3-lead), and Holter ECG; and measuring levels of troponin (e.g., troponin I and/or troponin T) and 4β-hydroxycholesterol.
The following safety laboratory parameters were measured: (1) hematology parameters (CBC, including differential count, and platelet count); (2) serum chemistry parameters (e.g., sodium, potassium, chloride, bicarbonate, calcium, magnesium, urea, creatinine, ALP, ALT, AST, total bilirubin, glucose, and CPK); and (3) urinalysis parameters (e.g., pH, protein, glucose, leukocyte cstcrasc, and blood).
Abnormal and/or rising troponin values (as per investigator's judgment and taking into account potential baseline troponin elevation frequently observed in heart failure) led to the patient being clinically evaluated for possible myocardial ischemia. […] The entire clinical context (e.g., signs, symptoms, new ECG changes, new troponin, and CK-MB abnormalities) was evaluated and correlated with any other relevant clinical findings, patient's medical history, and laboratory data to determine the clinical significance of the findings. Troponin results performed on Day 2 of Part 1 (SAD) and Day 10 of Part 2 (MAD) at a local lab were reviewed prior to the patient being discharged the next day.
Primary endpoints for this study (safety measures) included the following: treatment-emergent AEs and SAEs; ECG recordings, interpretation, and intervals; vital signs; serum Troponin I concentrations; laboratory abnormalities; and physical examination abnormalities.

[2] = SAD Cohorts 1 and 2, 175 mg (n = 8)
[3] = SAD Cohorts 1 and 2, 350 mg (n = 8)
[4] = SAD Cohorts 1 and 2, 400 mg Split Dose (n = 4)
[5] = SAD Cohorts 1 and 2, 550 mg Split Dose (n = 2)
[6] = SAD Cohorts 1 and 2, Total Active (n = 12)

Structure (SMILES): Cn1cc(S(=O)(=O)[C@@](C)(F)C2CCN(C(=O)Nc3ccon3)CC2)c(C(F)F)n1 [Compound I, (R)-4-(1-((3-(difluoromethyl)-1-methyl-1H-pyrazol-4-yl)sulfonyl)-1-fluoroethyl)-N-(isoxazol-3-yl) piperidine-1-carboxamide]
- subjects with AEs related to treatment (healthy subjects; 50 mg (50.0%)): 3 subjects
- serious AE, one subject (healthy subjects; 100 mg, 16-22 hours postdosing): short duration of complete AV block
- subjects with AEs related to treatment (healthy subjects; 350 mg (50.0%)): 3 subjects
- hs-troponin I concentration, one subject (healthy subjects; 525 mg, 6 hours postdose, upper limit of normal 15): 16 ng/L
- maximum troponin I level, one subject ([1]; 550 mg, 24 hours post-dose (4×ULN)): 0.12 ng/mL
- TEAE: Any SOC, any PT [1, 2]: 2 (25.0) n (%)
- TEAE: Dyspnea [1, 2]: 1 (12.5) n (%)
- TEAE: Fatigue [1, 2]: 1 (12.5) n (%)
- TEAE: Infusion site discomfort [1, 2]: 1 (12.5) n (%)
- TEAE: Urinary tract infection [1, 2]: 1 (12.5) n (%)
- TEAE: Any SOC, any PT [1, 3]: 5 (62.5) n (%)
- TEAE: Bursitis [1, 3]: 1 (12.5) n (%)
- TEAE: Diarrhoea [1, 3]: 1 (12.5) n (%)
- TEAE: Hypomagnesemia [1, 3]: 1 (12.5) n (%)
- TEAE: Oral contusion [1, 3]: 1 (12.5) n (%)
- TEAE: Proteinuria [1, 3]: 1 (12.5) n (%)
- TEAE: Anemia [1, 4]: 1 (25.0) n (%)
- TEAE: Any SOC, any PT [1, 4]: 3 (75.0) n (%)
- TEAE: Neck pain [1, 4]: 1 (25.0) n (%)
- TEAE: Orthostatic hypotension [1, 4]: 1 (25.0) n (%)
- TEAE: Ventricular extrasystoles [1, 4]: 1 (25.0) n (%)
- TEAE: Any SOC, any PT [1, 5]: 1 (50.0) n (%)
- TEAE: Cardiac discomfort [1, 5]: 1 (50.0) n (%)
- TEAE: Dyspnea [1, 5]: 1 (50.0) n (%)
- TEAE: Troponin increase [1, 5]: 1 (50.0) n (%)
- TEAE: Anemia [1, 6]: 1 (8.3) n (%)
- TEAE: Any SOC, any PT [1, 6]: 10 (83.3) n (%)
- TEAE: Bursitis [1, 6]: 1 (8.3) n (%)
- TEAE: Cardiac discomfort [1, 6]: 1 (8.3) n (%)
- TEAE: Diarrhoea [1, 6]: 1 (8.3) n (%)
- TEAE: Diverticulitis [1, 6]: 1 (8.3)− n (%)
- TEAE: Dyspnea [1, 6]: 1 (8.3) n (%)
- TEAE: Fatigue [1, 6]: 1 (8.3) n (%)
- TEAE: Hypomagnesemia [1, 6]: 1 (8.3) n (%)
- TEAE: Infusion site discomfort [1, 6]: 1 (8.3) n (%)
- TEAE: Neck pain [1, 6]: 1 (8.3) n (%)
- TEAE: Oral contusion [1, 6]: 1 (8.3) n (%)
- TEAE: Orthostatic hypotension [1, 6]: 1 (8.3) n (%)
- TEAE: Proteinuria [1, 6]: 1 (8.3) n (%)
- TEAE: Troponin increase [1, 6]: 1 (8.3) n (%)
- TEAE: Urinary tract infection [1, 6]: 1 (8.3) n (%)
- TEAE: Ventricular extrasystoles [1, 6]: 1 (8.3) n (%)
